In patent US11352308B2, “Compound and semiconductor material containing same” (DIC Corporation, priority 2016, dated 2022):

Experiment: Solubility in p-xylene at room temperature (25° C.), visual complete dissolution
Format: physicochemical
Protocol: Solubility was evaluated by completely dissolving compound (101) visually by adding p-xylene at room temperature (25° C.).

Row | Solubility of compound | Structure (SMILES)
1 | 0.4 wt % | CCCCCCCCCCc1ccc2cc3cc(-c4ccccc4)ccc3cc2c1 [Compound (105)]
2 | 1.3 wt % | CCCCCCc1ccc2cc3cc(-c4ccccc4)ccc3cc2c1 [Compound (101)]
3 | 0.4 wt % | CCCCCCCCCCc1ccc2cc3cc(-c4ccc(C)cc4)ccc3cc2c1 [Compound (107)]

Continued, molecule first:

Row | Structure (SMILES) | Solubility of compound
4 | c1ccc(-c2ccc3cc4cc(-c5ccccc5)ccc4cc3c2)cc1 [Compound (C101), reference compound] | <0.1 (which cannot accurately be wt %
5 | CCCCCCc1ccc2cc3cc(-c4ccc(C)cc4)ccc3cc2c1 [Compound (106)] | 0.8 wt %
6 | CCCCCCCCCc1ccc2cc3cc(-c4ccccc4)ccc3cc2c1 [Compound (104)] | 0.7 wt %
7 | CCCCCCCCc1ccc2cc3cc(-c4ccccc4)ccc3cc2c1 [Compound (103)] | 0.7 wt %
8 | CCCCCCCc1ccc2cc3cc(-c4ccccc4)ccc3cc2c1 [Compound (102)] | 1.1 wt %
